This passage reports IC50 results from patent US10273222B2 (CELGENE QUANTICEL RESEARCH, INC., priority 2013, dated 2019).

Assay [1] addresses FBXL10 (Homo sapiens (Human), UniProt Q8NHM5). As to the kind of experiment: FBXL10 in vitro enzyme inhibition assay (AlphaScreen). The assay is classed as biochemical. The procedure, abridged:
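AlphaScreen read-out of H3K36me1 product, detected with anti-H3K36me1 antibody plus streptavidin donor and Protein A acceptor beads (final 10 μg/ml) in 50 mM HEPES pH 7.3, 10 mM NaCl, 0.005% Brij35, 5 mM EDTA, 2 mg/ml BSA. Beads incubated 2 h to overnight at room temperature; IC50 derived from AlphaScreen signal.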
In general terms: Bead proximity is the source of the signal in Alpha formats.

Assay [2] has as its target JMJD2A (Homo sapiens (Human), UniProt O75164). Put plainly: JMJD2A in vitro enzyme inhibition assay (TR-FRET). The assay is classed as biochemical. A general note: Time-resolved FRET reads energy transfer from a long-lived donor to a nearby acceptor.
Protocol: This assay determines the ability of a test compound to inhibit Jarid1A, Jarid1B, JMJD2C, and JMJD2A demethylase activity. […] Baculovirus expressed JMJD2A (GenBank Accession #NM_014663, AA 1-350) was purchased from BPS Bioscience (Cat#50123).
The ability of test compounds to inhibit the activity of JMJD2A was determined in 384-well plate format under the following reaction conditions: 2 nM JMJD2A, 300 nM H3K9me3-biotin labeled peptide (Anaspec cat #64360), 2 μM alpha-ketoglutaric acid in assay buffer of 50 mM HEPES, pH7.3, 0.005% Brij35, 0.5 mM TCEP, 0.2 mg/ml BSA, 50 μM sodium L-ascorbate, and 2 μM ammonium iron(II) sulfate. Reaction product was determined quantitatively by TR-FRET after the addition of detection reagent Phycolink Streptavidin-allophycocyanin (Prozyme) and Europium-anti-di-methylated histone H3 lysine 9 (H3K9me2) antibody (PerkinElmer) in the presence of 5 mM EDTA in LANCE detection buffer (PerkinElmer) at a final concentration of 50 nM and 1 nM, respectively.
The assay reaction was initiated by the following: 2 μl of the mixture of 900 nM H3K9me3-biotin labeled peptide and 6 μM alpha-ketoglutaric acid with 2 μl of 11-point serial diluted inhibitor in 3% DMSO were added to each well of plate, followed by the addition of 2 μl of 6 nM JMJD2A to initiate the reaction. The reaction mixture was incubated at room temperature for 30 minutes, and terminated by the addition of 6 μl of 5 mM EDTA in LANCE detection buffer containing 100 nM Phycolink Streptavidin-allophycocyanin and 2 nM Europium-anti-H3K9me2 antibody. Plates were read by EnVisionMultilabel Reader in TR-FRET mode (excitation at 320 nm, emission at 615 nm and 665 nm) after 1 hour incubation at room temperature. A ratio was calculated (665/615) for each well and fitted to determine inhibition constant (IC50).
Assay [3] addresses Jarid1A (Homo sapiens (Human), UniProt P29375). As to the kind of experiment: Jarid1A in vitro enzyme inhibition assay (TR-FRET). Type of assay: biochemical. An excerpt:
The enzymatic assay of Jarid1A activity is based upon Time Resolved-Fluorescence Resonance Energy Transfer (TR-FRET) detection.

Assay [4] addresses Jarid1B (Homo sapiens (Human), UniProt Q9UGL1). Put plainly: Jarid1B in vitro enzyme inhibition assay (TR-FRET). Type of assay: biochemical.
The target of assay [5] is JMJD2C (Homo sapiens (Human), UniProt Q9H3R0). Put plainly: JMJD2C in vitro enzyme inhibition assay (TR-FRET). The assay is classed as biochemical.
Sequence of JMJD2C (Q9H3R0 2-372): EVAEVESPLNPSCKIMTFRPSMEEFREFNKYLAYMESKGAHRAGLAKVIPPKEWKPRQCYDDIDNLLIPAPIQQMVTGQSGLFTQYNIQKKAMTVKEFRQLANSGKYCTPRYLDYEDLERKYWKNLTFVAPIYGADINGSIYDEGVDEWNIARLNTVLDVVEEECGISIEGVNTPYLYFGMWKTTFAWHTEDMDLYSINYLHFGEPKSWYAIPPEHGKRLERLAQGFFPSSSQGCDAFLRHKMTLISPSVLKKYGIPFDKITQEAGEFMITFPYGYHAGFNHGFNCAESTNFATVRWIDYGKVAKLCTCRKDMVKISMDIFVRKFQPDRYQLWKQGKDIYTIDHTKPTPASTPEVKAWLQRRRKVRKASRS
Protocol: This assay determines the ability of a test compound to inhibit Jarid1A, Jarid1B, JMJD2C, and JMJD2A demethylase activity. […] Baculovirus expressed JMJD2C (GenBank Accession #BC143571, AA 2-372) was purchased from BPS Bioscience (Cat#50105).
The ability of test compounds to inhibit the activity of JMJD2C was determined in 384-well plate format under the following reaction conditions: 0.3 nM JMJD2C, 300 nM H3K9me3-biotin labeled peptide (Anaspec cat #64360), 2 μM alpha-ketoglutaric acid in assay buffer of 50 mM HEPES, pH7.3, 0.005% Brij35, 0.5 mM TCEP, 0.2 mg/ml BSA, 50 μM sodium L-ascorbate, and 2 μM ammonium iron(II) sulfate. Reaction product was determined quantitatively by TR-FRET after the addition of detection reagent Phycolink Streptavidin-allophycocyanin (Prozyme) and Europium-anti-di-methylated histone H3 lysine 9 (H3K9me2) antibody (PerkinElmer) in the presence of 5 mM EDTA in LANCE detection buffer (PerkinElmer) at a final concentration of 50 nM and 1 nM, respectively.
The assay reaction was initiated by the following: 2 μl of the mixture of 900 nM H3K9me3-biotin labeled peptide and 6 μM alpha-ketoglutaric acid with 2 μl of 11-point serial diluted inhibitor in 3% DMSO were added to each well of the plate, followed by the addition of 2 μl of 0.9 nM JMJD2C to initiate the reaction. The reaction mixture was incubated at room temperature for 30 minutes, and terminated by the addition of 6 μl of 5 mM EDTA in LANCE detection buffer containing 100 nM Phycolink Streptavidin-allophycocyanin and 2 nM Europium-anti-H3K9me2 antibody. Plates were read by EnVisionMultilabel Reader in TR-FRET mode (excitation at 320 nm, emission at 615 nm and 665 nm) after 1 hour incubation at room temperature. A ratio was calculated (665/615) for each well and fitted to determine inhibition constant (IC50).
Assay [6] concerns KDM5A and KDM5B. As to the kind of experiment: In vitro cell-based assay: tri-methyl H3K4 immuno-blotting in ZR-75-1 cells (cellular inhibition of KDM5A/B). To be noted: ZR-75-1 breast cancer cells, 72 hours, tri-methylated H3K4 level; read-out: IC50 ZR-75-1 cell-MOA.
Protocol: This quantitative immuno-blotting assay measures the amount tri-methylated histone H3 at amino acid Lysine number 4, a specific substrate and product of the direct enzymatic activity of the histone demethylases KDM5A and KDM5B from extracts of the ZR-75-1 breast cancer cell line.
This assay is a fluorometric immunoassay for the quantification of tri-methyl H3K4 extracted from cells treated with test compound and is used as a measure of the cellular inhibition of KDM5A/B.
Extracts were prepared containing all of the cellular histone material using detergent based lysis and sonication methods. These lysates were subsequently normalized for total protein content using a colorimetric bicinchonic acid assay (MicroBCA Pierce/Thermo Scientific). Normalized cell extracts were then subjected to typical immuno-blotting procedures using NuPage reagents (Life Technologies). Electrophoretically separated histones were then transferred and immobilized using polyvinylidene difluoride membrane (Immobilon-FL Millipore). The amount of tri-methylated lysine 4 of histone H3 was detected using an antibody specific to the tri-methylated state (Cell Signaling Technologies) and quantified on an infrared imager using a densitometry software package (Odyssey CLx, Image Studio, Li-Cor). This background subtracted densitometry value was reported as a ration of the GAPDH amount for that sample and then calculated as a percent of the DMSO treated sample. The software package XL-fit (IDBS) was then used to calculate a relative IC50 value for the dilution series of a given test compound according to the equation: fit=(D+((Vmax*(x^n))/((x^n)+(Km^n)))).

Molecules are shown by their SMILES.

Sequence of Jarid1A (P29375 1-1090): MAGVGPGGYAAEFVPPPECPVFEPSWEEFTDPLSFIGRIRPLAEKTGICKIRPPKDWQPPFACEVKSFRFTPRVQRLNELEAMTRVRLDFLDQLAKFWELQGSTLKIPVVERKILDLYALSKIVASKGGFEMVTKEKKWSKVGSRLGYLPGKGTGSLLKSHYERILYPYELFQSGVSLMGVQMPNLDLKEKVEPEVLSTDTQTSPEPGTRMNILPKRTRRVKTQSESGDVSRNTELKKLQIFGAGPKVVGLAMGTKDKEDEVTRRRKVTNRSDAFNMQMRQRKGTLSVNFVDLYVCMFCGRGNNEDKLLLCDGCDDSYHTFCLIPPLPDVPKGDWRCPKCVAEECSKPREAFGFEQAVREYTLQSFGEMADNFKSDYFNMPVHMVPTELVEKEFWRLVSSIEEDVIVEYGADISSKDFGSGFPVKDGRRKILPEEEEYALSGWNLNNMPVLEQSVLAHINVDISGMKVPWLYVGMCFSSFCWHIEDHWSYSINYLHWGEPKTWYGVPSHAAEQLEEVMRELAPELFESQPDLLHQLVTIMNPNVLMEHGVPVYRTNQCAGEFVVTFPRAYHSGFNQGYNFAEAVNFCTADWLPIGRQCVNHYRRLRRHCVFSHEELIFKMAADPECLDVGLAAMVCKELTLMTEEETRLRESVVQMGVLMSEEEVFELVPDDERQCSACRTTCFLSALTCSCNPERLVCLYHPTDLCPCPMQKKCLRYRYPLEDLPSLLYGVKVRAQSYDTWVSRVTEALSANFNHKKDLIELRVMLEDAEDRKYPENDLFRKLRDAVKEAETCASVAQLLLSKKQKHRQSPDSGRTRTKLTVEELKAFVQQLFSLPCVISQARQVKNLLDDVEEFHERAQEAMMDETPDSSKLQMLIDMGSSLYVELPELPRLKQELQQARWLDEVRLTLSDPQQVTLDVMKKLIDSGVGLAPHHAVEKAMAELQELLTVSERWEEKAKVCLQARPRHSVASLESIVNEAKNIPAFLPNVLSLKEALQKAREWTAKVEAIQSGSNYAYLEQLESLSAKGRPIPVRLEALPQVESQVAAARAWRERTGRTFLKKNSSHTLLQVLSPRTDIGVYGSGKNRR
Sequence of JMJD2A (O75164 1-350): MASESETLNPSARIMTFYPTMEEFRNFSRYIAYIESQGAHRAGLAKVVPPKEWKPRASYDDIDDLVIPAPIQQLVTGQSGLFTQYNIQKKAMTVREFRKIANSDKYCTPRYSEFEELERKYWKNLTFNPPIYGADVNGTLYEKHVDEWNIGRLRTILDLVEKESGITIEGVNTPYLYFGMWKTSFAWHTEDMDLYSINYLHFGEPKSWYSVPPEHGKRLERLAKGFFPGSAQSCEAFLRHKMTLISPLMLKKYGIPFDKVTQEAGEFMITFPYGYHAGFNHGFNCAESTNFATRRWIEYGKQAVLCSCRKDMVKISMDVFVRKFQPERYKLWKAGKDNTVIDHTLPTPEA
Sequence of Jarid1B (Q9UGL1 2-751): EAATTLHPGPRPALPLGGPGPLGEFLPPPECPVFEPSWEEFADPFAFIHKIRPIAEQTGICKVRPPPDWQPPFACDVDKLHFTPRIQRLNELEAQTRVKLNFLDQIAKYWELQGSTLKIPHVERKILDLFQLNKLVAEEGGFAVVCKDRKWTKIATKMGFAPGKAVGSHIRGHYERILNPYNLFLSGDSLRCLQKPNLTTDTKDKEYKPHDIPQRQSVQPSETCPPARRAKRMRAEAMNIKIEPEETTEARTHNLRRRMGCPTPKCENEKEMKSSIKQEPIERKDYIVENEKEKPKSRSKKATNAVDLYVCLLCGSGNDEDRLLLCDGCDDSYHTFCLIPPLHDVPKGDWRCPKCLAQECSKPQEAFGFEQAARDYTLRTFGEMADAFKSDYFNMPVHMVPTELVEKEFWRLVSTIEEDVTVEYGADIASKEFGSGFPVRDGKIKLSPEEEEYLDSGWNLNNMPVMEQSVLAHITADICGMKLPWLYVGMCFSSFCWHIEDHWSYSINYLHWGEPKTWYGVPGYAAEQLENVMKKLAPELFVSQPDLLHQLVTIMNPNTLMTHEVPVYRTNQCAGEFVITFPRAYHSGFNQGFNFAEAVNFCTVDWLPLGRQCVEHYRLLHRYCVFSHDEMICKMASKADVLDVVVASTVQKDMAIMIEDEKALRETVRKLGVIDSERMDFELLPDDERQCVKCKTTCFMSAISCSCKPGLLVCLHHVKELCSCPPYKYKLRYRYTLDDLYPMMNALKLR
Sequence of FBXL10 (Q8NHM5 1-650): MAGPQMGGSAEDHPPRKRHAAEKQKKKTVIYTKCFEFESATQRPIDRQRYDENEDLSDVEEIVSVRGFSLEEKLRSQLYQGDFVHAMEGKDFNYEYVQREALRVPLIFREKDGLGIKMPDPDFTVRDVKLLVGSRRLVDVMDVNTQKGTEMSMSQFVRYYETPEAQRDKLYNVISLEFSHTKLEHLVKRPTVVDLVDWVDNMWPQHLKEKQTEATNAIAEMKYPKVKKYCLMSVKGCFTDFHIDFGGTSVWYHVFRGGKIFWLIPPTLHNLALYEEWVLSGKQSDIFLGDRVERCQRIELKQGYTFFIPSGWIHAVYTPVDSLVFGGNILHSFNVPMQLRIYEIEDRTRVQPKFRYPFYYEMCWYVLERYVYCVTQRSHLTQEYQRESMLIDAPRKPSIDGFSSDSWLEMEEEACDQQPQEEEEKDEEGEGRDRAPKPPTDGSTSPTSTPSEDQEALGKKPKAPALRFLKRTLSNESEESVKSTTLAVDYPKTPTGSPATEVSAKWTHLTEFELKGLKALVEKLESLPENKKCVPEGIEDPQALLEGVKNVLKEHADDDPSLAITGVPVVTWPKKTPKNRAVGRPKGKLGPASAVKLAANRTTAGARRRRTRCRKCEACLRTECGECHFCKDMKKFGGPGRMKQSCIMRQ

Broadly, the IC50 is the point on the concentration scale where inhibition reaches its midpoint. Turning to `Cn1cnc(-c2cc(C(=O)O)ccn2)c1` [Example 1, 2-(1-methyl-1H-imidazol-4-yl)pyridine-4-carboxylic acid], the IC50 in assay [1] is at most 100 nM; in assay [2], at most 100 nM; in assay [3] it was at most 100 nM; in assay [4], at most 100 nM; in assay [5], at most 100 nM; in assay [6] it was above 10000 nM.

Regarding `Cc1ccc(-c2c(-c3cc(C(=O)O)ccn3)ncn2C)cc1O` [Example 3, 2-[5-(3-hydroxy-4-methylphenyl)-1-methyl-1H-imidazol-4-yl]pyridine-4-carboxylic acid], the IC50 was 100 to 1000 nM in assay [1]; at most 100 nM in assay [3]; at most 100 nM in assay [4]; 1000 to 10000 nM in assay [5]; above 10000 nM in assay [6].

Turning to `Cn1cnc(-c2cc(C(=O)O)ccn2)c1-c1ccc(C2CC2)cc1` [Example 7, 2-[5-(4-cyclopropylphenyl)-1-methyl-1H-imidazol-4-yl]pyridine-4-carboxylic acid], the IC50 was 100 to 1000 nM in assay [1]; at most 100 nM in assay [3]; at most 100 nM in assay [4]; 1000 to 10000 nM in assay [5]; above 10000 nM in assay [6].

`Cn1cnc(-c2cc(C(=O)O)ccn2)c1-c1ccc(-n2cccn2)cc1` [Example 15, 2-{1-methyl-5-[4-(1H-pyrazol-1-yl)phenyl]-1H-imidazol-4-yl}pyridine-4-carboxylic acid]: the IC50 in assay [1] was 100 to 1000 nM; in assay [3] it was at most 100 nM; in assay [4], at most 100 nM; in assay [5], 100 to 1000 nM; in assay [6], 1000 to 10000 nM.

For the molecule `Cn1cnc(-c2cc(C(=O)O)ccn2)c1-c1ccc(OCC2CC2)cc1` [Example 16, 2-{5-[4-(cyclopropylmethoxy)phenyl]-1-methyl-1H-imidazol-4-yl}pyridine-4-carboxylic acid], the IC50 is 100 to 1000 nM in assay [1]; at most 100 nM in assay [3]; at most 100 nM in assay [4]; 100 to 1000 nM in assay [5]; 1000 to 10000 nM in assay [6].

For the molecule `Cn1cnc(-c2cc(C(=O)O)ccn2)c1-c1ccc(Cl)cc1` [Example 19, 2-[5-(4-chlorophenyl)-1-methyl-1H-imidazol-4-yl]pyridine-4-carboxylic acid], the IC50 in assay [1] was at most 100 nM; in assay [3] it was at most 100 nM; in assay [4], at most 100 nM; in assay [5], 100 to 1000 nM; in assay [6], 1000 to 10000 nM.

`Cn1cnc(-c2cc(C(=O)O)ccn2)c1-c1cccc(Cl)c1` [Example 20, 2-[5-(3-chlorophenyl)-1-methyl-1H-imidazol-4-yl]pyridine-4-carboxylic acid]: the IC50 in assay [1] was at most 100 nM; in assay [3], at most 100 nM; in assay [4] it was at most 100 nM; in assay [5], 100 to 1000 nM; in assay [6] it was above 10000 nM.

With `Cn1cnc(-c2cc(C(=O)O)ccn2)c1-c1ccc2cc[nH]c2c1` [Example 22, 2-[5-(1H-indol-6-yl)-1-methyl-1H-imidazol-4-yl]pyridine-4-carboxylic acid], the IC50 in assay [1] is at most 100 nM; in assay [3], at most 100 nM; in assay [4], at most 100 nM; in assay [5], 100 to 1000 nM; in assay [6], above 10000 nM.

Regarding `Cn1cnc(-c2cc(C(=O)O)ccn2)c1-c1ccc(F)cc1` [Example 23, 2-[5-(4-fluorophenyl)-1-methyl-1H-imidazol-4-yl]pyridine-4-carboxylic acid], the IC50 in assay [1] is at most 100 nM; in assay [2], 100 to 1000 nM; in assay [3] it was at most 100 nM; in assay [4] it was at most 100 nM; in assay [5], 100 to 1000 nM; in assay [6], 1000 to 10000 nM.

On to `Cn1cnc(-c2cc(C(=O)O)ccn2)c1-c1ccc(Cl)c(F)c1` [Example 29, 2-[5-(4-chloro-3-fluorophenyl)-1-methyl-1H-imidazol-4-yl]pyridine-4-carboxylic acid], for which the IC50 in assay [1] was at most 100 nM; in assay [3] it was at most 100 nM; in assay [4], at most 100 nM; in assay [5], 100 to 1000 nM; in assay [6] it was above 10000 nM.

As for `CCCn1cnc(-c2cc(C(=O)O)ccn2)c1-c1ccc(Cl)c(F)c1` [Example 35, 2-[5-(4-chloro-3-fluorophenyl)-1-propyl-1H-imidazol-4-yl]pyridine-4-carboxylic acid], the IC50 in assay [1] was at most 100 nM; in assay [3], at most 100 nM; in assay [4], at most 100 nM; in assay [5] it was 100 to 1000 nM; in assay [6] it was above 10000 nM.

`CCCn1cnc(-c2cc(C(=O)O)ccn2)c1` [Example 41, 2-(1-propyl-1H-imidazol-4-yl)pyridine-4-carboxylic acid]: the IC50 in assay [1] was at most 100 nM; in assay [3], at most 100 nM; in assay [4], at most 100 nM; in assay [5], at most 100 nM; in assay [6], 1000 to 10000 nM.

For `O=C(O)c1ccnc(-c2cn(CCN3CCCC3)cn2)c1` [Example 43, 2-{1-[2-(pyrrolidin-1-yl)ethyl]-1H-imidazol-4-yl}pyridine-4-carboxylic acid], the IC50 is 1000 to 10000 nM in assay [1]; at most 100 nM in assay [2]; at most 100 nM in assay [3]; at most 100 nM in assay [4]; at most 100 nM in assay [5]; above 10000 nM in assay [6].

For the molecule `Cn1cnc(-c2cc(-c3nn[nH]n3)ccn2)c1` [Example 62, 2-(1-methyl-1H-imidazol-4-yl)-4-(2H-tetrazol-5-yl)pyridine], the IC50 in assay [1] was at most 100 nM; in assay [2] it was above 10000 nM; in assay [3] it was 100 to 1000 nM; in assay [4], 100 to 1000 nM; in assay [5], above 10000 nM; in assay [6], above 10000 nM.

For `O=C(O)c1ccnc(-c2cn(CCN(Cc3ccc(F)cc3)C3CC3)cn2)c1` [Example 71, 2-[1-[2-[cyclopropyl-[(4-fluorophenyl)methyl]amino]ethyl]imidazol-4-yl]pyridine-4-carboxylic acid], the IC50 is at most 100 nM in assay [1]; at most 100 nM in assay [2]; at most 100 nM in assay [3]; at most 100 nM in assay [4]; at most 100 nM in assay [5]; 1000 to 10000 nM in assay [6].

As to `O=C(O)c1ccnc(-c2cn(CCNCC3CCC(F)(F)CC3)cn2)c1` [Example 72, 2-[1-[2-[(4,4-difluorocyclohexyl)methylamino]ethyl]imidazol-4-yl]pyridine-4-carboxylic acid], the IC50 in assay [1] is at most 100 nM; in assay [3], at most 100 nM; in assay [4] it was at most 100 nM; in assay [5], at most 100 nM; in assay [6], 1000 to 10000 nM.

Consider `O=C(O)c1ccnc(-c2cn(CCN3CCCc4ccccc43)cn2)c1` [Example 88, 2-[1-[2-(3,4-dihydro-2H-quinolin-1-yl)ethyl]imidazol-4-yl]pyridine-4-carboxylic acid], for which the IC50 in assay [1] was at most 100 nM; in assay [2], at most 100 nM; in assay [3], at most 100 nM; in assay [4] it was at most 100 nM; in assay [5], 100 to 1000 nM; in assay [6] it was 1000 to 10000 nM.

Regarding `O=C(O)c1ccnc(-c2cn(CCc3ccc(F)cc3)cn2)c1` [Example 92, 2-[1-[2-(4-fluorophenyl)ethyl]imidazol-4-yl]pyridine-4-carboxylic acid], the IC50 is at most 100 nM in assay [1]; at most 100 nM in assay [3]; at most 100 nM in assay [4]; at most 100 nM in assay [5]; 1000 to 10000 nM in assay [6].

Take `O=C(O)c1ccnc(-c2cn(CCc3ccccc3F)cn2)c1` [Example 93, 2-[1-[2-(2-fluorophenyl)ethyl]imidazol-4-yl]pyridine-4-carboxylic acid]: the IC50 in assay [1] is at most 100 nM; in assay [3], at most 100 nM; in assay [4], at most 100 nM; in assay [5] it was at most 100 nM; in assay [6] it was 1000 to 10000 nM.

With `COc1ccccc1CCn1cnc(-c2cc(C(=O)O)ccn2)c1` [Example 95, 2-[1-[2-(2-methoxyphenyl)ethyl]imidazol-4-yl]pyridine-4-carboxylic acid], the IC50 in assay [1] is at most 100 nM; in assay [2], 100 to 1000 nM; in assay [3] it was at most 100 nM; in assay [4] it was at most 100 nM; in assay [5] it was 100 to 1000 nM; in assay [6] it was above 10000 nM.

Consider `O=C(O)c1ccnc(-c2cn(Cc3ccccc3)cn2)c1` [Example 100, 2-(1-benzylimidazol-4-yl)pyridine-4-carboxylic acid], for which the concentration for half-maximal inhibition (IC50) is at most 100 nM in assay [1]; at most 100 nM in assay [3]; at most 100 nM in assay [4]; 100 to 1000 nM in assay [5]; 1000 to 10000 nM in assay [6].

Consider `O=C(O)c1ccnc(-c2cn(Cc3cccc(F)c3)cn2)c1` [Example 104, 2-[1-[(3-fluorophenyl)methyl]imidazol-4-yl]pyridine-4-carboxylic], for which the IC50 in assay [1] is at most 100 nM; in assay [3], at most 100 nM; in assay [4] it was at most 100 nM; in assay [5] it was 100 to 1000 nM; in assay [6], above 10000 nM.

As for `CC(Cc1ccccc1)n1cnc(-c2cc(C(=O)O)ccn2)c1` (centres unmarked) [Example 106, 2-[1-(1-phenylpropan-2-yl)imidazol-4-yl]pyridine-4-carboxylic acid], the IC50 was at most 100 nM in assay [1]; at most 100 nM in assay [3]; at most 100 nM in assay [4]; 100 to 1000 nM in assay [5]; 1000 to 10000 nM in assay [6].
